Consider 28 compounds from patent US20090069370A1, “AZACYCLYLISOQUINOLINONE AND ISOINDOLINONE DERIVATIVES AS HISTAMINE-3 ANTAGONISTS” (Wyeth, priority 2007, published 2009).

Where a name gives a salt, the structure may show the parent alone.

Regarding `CCNC(=O)c1ccc(Oc2ccc3c(c2)CCN([C@@H]2CCN(C4CCCC4)C2)C3=O)cc1` (as salt: hydrochloride) [Example 38, 4-({2-[(3R)-1-cyclopentylpyrrolidin-3-yl]-1-oxo-1,2,3,4-tetrahydroisoquinolin-6-yl}oxy)-N-ethylbenzamide], the melting point (commonly the temperature of the solid-liquid transition) was in the range of 178 to 180 °C.
The figure for `CNC(=O)c1ccc(-c2ccc3c(c2)CCN([C@@H]2CCN(C4CCCC4)C2)C3=O)cc1` (as salt: hydrochloride) [Example 41, 4-{2-[(3R)-1-cyclopentylpyrrolidin-3-yl]-1-oxo-1,2,3,4-tetrahydroisoquinolin-6-yl}-N-methylbenzamide] is above 240 °C; for `CCNC(=O)c1ccc(-c2ccc3c(c2)CCN([C@@H]2CCN(C4CCCC4)C2)C3=O)cc1` (as salt: hydrochloride) [Example 42, 4-{2-[(3R)-1-cyclopentylpyrrolidin-3-yl]-1-oxo-1,2,3,4-tetrahydroisoquinolin-6-yl}-N-ethylbenzamide] it is above 200 °C; for `O=C(c1ccc(-c2ccc3c(c2)CCN([C@@H]2CCN(C4CCCC4)C2)C3=O)cc1)N1CCCC1` (as salt: hydrochloride) [Example 43, 2-[(3R)-1-cyclopentylpyrrolidin-3-yl]-6-[4-(pyrrolidin-1-ylcarbonyl)phenyl]-3,4-dihydroisoquinolin-1(2H)-one] it is above 200 °C.
Next, `CNC(=O)c1ccc(-c2ccc3c(c2)CCN([C@@H]2CCN(C4CCC4)C2)C3=O)cc1` (as salt: hydrochloride) [Example 44, 4-{2-[(3R)-1-cyclobutylpyrrolidin-3-yl]-1-oxo-1,2,3,4-tetrahydroisoquinolin-6-yl}-N-methylbenzamide]: 263 to 265 °C; `CCNC(=O)c1ccc(-c2ccc3c(c2)CCN([C@@H]2CCN(C4CCC4)C2)C3=O)cc1` (as salt: hydrochloride) [Example 45, 4-{2-[(3R)-1-cyclobutylpyrrolidin-3-yl]-1-oxo-1,2,3,4-tetrahydroisoquinolin-6-yl}-N-ethylbenzamide]: 268 to 272 °C; `CN(C)C(=O)c1ccc(-c2ccc3c(c2)CCN([C@@H]2CCN(C4CCC4)C2)C3=O)cc1` (as salt: hydrochloride) [Example 46, 4-{2-[(3R)-1-cyclobutylpyrrolidin-3-yl]-1-oxo-1,2,3,4-tetrahydroisoquinolin-6-yl}-N,N-dimethylbenzamide]: 211 to 212 °C.
Next, `O=C(c1ccc(-c2ccc3c(c2)CCN([C@@H]2CCN(C4CCC4)C2)C3=O)cc1)N1CCCC1` (as salt: hydrochloride) [Example 47, 2-[(3R)-1-cyclobutylpyrrolidin-3-yl]-6-[4-(pyrrolidin-1-ylcarbonyl)phenyl]-3,4-dihydroisoquinolin-1(2H)-one]: 215 to 217 °C; `O=C(c1ccc(-c2ccc3c(c2)CCN([C@@H]2CCN(C4CCC4)C2)C3=O)cc1F)N1CCCC1` (as salt: hydrochloride) [Example 48, 2-[(3R)-1-cyclobutylpyrrolidin-3-yl]-6-[3-fluoro-4-(pyrrolidin-1-ylcarbonyl)phenyl]-3,4-dihydroisoquinolin-1(2H)-one]: 235 to 236 °C; `O=C(c1ccc(-c2ccc3c(c2)CCN([C@@H]2CCN(C4CCC4)C2)C3=O)cc1Cl)N1CCCC1` (as salt: hydrochloride) [Example 49, 6-[3-chloro-4-(pyrrolidin-1-ylcarbonyl)phenyl]-2-[(3R)-1-cyclobutylpyrrolidin-3-yl]-3,4-dihydroisoquinolin-1(2H)-one]: 198 to 200 °C.
As to `O=C1c2ccc(-c3ccccc3)cc2CCN1[C@@H]1CCN(C2CCC2)C1` (as salt: hydrochloride) [Example 50, 2-[(3R)-1-cyclobutylpyrrolidin-3-yl]-6-phenyl-3,4-dihydroisoquinolin-1(2H)-one], the melting point is above 255 °C.
The figure for `O=C1c2ccc(-c3ccc(F)cc3)cc2CCN1[C@@H]1CCN(C2CCC2)C1` (as salt: hydrochloride) [Example 51, 2-[(3R)-1-cyclobutylpyrrolidin-3-yl]-6-(4-fluorophenyl)-3,4-dihydroisoquinolin-1(2H)-one] is 231 to 233 °C; for `O=C(c1cccc(-c2ccc3c(c2)CCN([C@@H]2CCN(C4CCC4)C2)C3=O)c1)N1CCCC1` (as salt: hydrochloride) [Example 52, 2-[(3R)-1-cyclobutylpyrrolidin-3-yl]-6-[3-(pyrrolidin-1-ylcarbonyl)phenyl]-3,4-dihydroisoquinolin-1(2H)-one] it is 203 to 205 °C.
Next, `CN1CC[C@@H](N2CCc3cc(-c4ccc(C(=O)N5CCCC5)cc4)ccc3C2=O)C1` (as salt: hydrochloride) [Example 55, 2-[(3R)-1-methylpyrrolidin-3-yl]-6-[4-(pyrrolidin-1-ylcarbonyl)phenyl]-3,4-dihydroisoquinolin-1(2H)-one]: above 230 °C; `CC(C)N1CC[C@@H](N2CCc3cc(-c4ccc(C(=O)N5CCCC5)cc4)ccc3C2=O)C1` (as salt: hydrochloride) [Example 56, 2-[(3R)-1-(1-methylethyl)pyrrolidin-3-yl]-6-[4-(pyrrolidin-1-ylcarbonyl)phenyl]-3,4-dihydroisoquinolin-1(2H)-one]: 220 to 222 °C; `O=C(c1ccc(-c2ccc3c(c2)CCN([C@@H]2CCN(C4CCCCC4)C2)C3=O)cc1)N1CCCC1` (as salt: hydrochloride) [Example 57, 2-[(3R)-1-cyclohexylpyrrolidin-3-yl]-6-[4-(pyrrolidin-1-ylcarbonyl)phenyl]-3,4-dihydroisoquinolin-1(2H)-one]: 279 to 281 °C.
Next, `O=C(c1ccc(-c2ccc3c(c2)CCN([C@@H]2CCN(CC4CC4)C2)C3=O)cc1)N1CCCC1` (as salt: hydrochloride) [Example 58, 2-[(3R)-1-(cyclopropylmethyl)pyrrolidin-3-yl]-6-[4-(pyrrolidin-1-ylcarbonyl)phenyl]-3,4-dihydroisoquinolin-1(2H)-one]: 287 to 288 °C.
Take `O=C(c1ccc(-c2ccc3c(c2)CCN([C@@H]2CCN(CC4CCCC4)C2)C3=O)cc1)N1CCCC1` (as salt: hydrochloride) [Example 59, 2-[(3R)-1-(cyclopentylmethyl)pyrrolidin-3-yl]-6-[4-(pyrrolidin-1-ylcarbonyl)phenyl]-3,4-dihydroisoquinolin-1(2H)-one]: the melting point was 288 to 290 °C.
Next, `O=C(c1ccc(-c2ccc3c(c2)CCN([C@@H]2CCN(Cc4ccoc4)C2)C3=O)cc1)N1CCCC1` (as salt: hydrochloride) [Example 60, 2-[(3R)-1-(furan-3-ylmethyl)pyrrolidin-3-yl]-6-[4-(pyrrolidin-1-ylcarbonyl)phenyl]-3,4-dihydroisoquinolin-1(2H)-one]: 254 to 256 °C; `O=C(c1ccc(-c2ccc3c(c2)CCN([C@@H]2CCN(Cc4ccco4)C2)C3=O)cc1)N1CCCC1` (as salt: hydrochloride) [Example 61, 2-[(3R)-1-(furan-2-ylmethyl)pyrrolidin-3-yl]-6-[4-(pyrrolidin-1-ylcarbonyl)phenyl]-3,4-dihydroisoquinolin-1(2H)-one]: 254 to 256 °C; `O=C(c1ccc(-c2ccc3c(c2)CCN([C@@H]2CCN(Cc4cccs4)C2)C3=O)cc1)N1CCCC1` (as salt: hydrochloride) [Example 62, 6-[4-(pyrrolidin-1-ylcarbonyl)phenyl]-2-[(3R)-1-(thiophen-2-ylmethyl)pyrrolidin-3-yl]-3,4-dihydroisoquinolin-1(2H)-one]: 249 to 250 °C.
`O=C(c1ccc(-c2ccc3c(c2)CCN(C2CCN(C4CCC4)CC2)C3=O)cc1)N1CCCC1` (as salt: hydrochloride) [Example 65, 2-(1-cyclobutylpiperidin-4-yl)-6-[4-(pyrrolidin-1-ylcarbonyl)phenyl]-3,4-dihydroisoquinolin-1(2H)-one] yielded a melting point above 300 °C.
The compound `O=C(c1ccc(-c2ccc3c(c2)CCN(C2CCN(C4CCCC4)CC2)C3=O)cc1)N1CCCC1` (as salt: hydrochloride) [Example 66, 2-(1-cyclopentylpiperidin-4-yl)-6-[4-(pyrrolidin-1-ylcarbonyl)phenyl]-3,4-dihydroisoquinolin-1(2H)-one] displayed a melting point above 300 °C.
Next, `CC(C)N1CCC(N2CCc3cc(-c4ccc(C(=O)N5CCCC5)cc4)ccc3C2=O)CC1` (as salt: hydrochloride) [Example 67, 2-(1-isopropylpiperidin-4-yl)-6-[4-(pyrrolidin-1-ylcarbonyl)phenyl]-3,4-dihydroisoquinolin-1(2H)-one]: above 300 °C; `O=C(c1ccc(-c2ccc3c(c2)CCN([C@@H]2CCCN(C4CCC4)C2)C3=O)cc1)N1CCCC1` (as salt: hydrochloride) [Example 70, 2-[(3R)-1-cyclobutylpiperidin-3-yl]-6-[4-(pyrrolidin-1-ylcarbonyl)phenyl]-3,4-dihydroisoquinolin-1(2H)-one]: 260.5 to 262 °C.
Next, `O=C(c1ccc(-c2ccc3c(c2)CCN([C@@H]2CCCN(C4CCCC4)C2)C3=O)cc1)N1CCCC1` (as salt: hydrochloride) [Example 71, 2-[(3R)-1-cyclopentylpiperidin-3-yl]-6-[4-(pyrrolidin-1-ylcarbonyl)phenyl]-3,4-dihydroisoquinolin-1(2H)-one]: above 250 °C; `CC(C)N1CCC[C@@H](N2CCc3cc(-c4ccc(C(=O)N5CCCC5)cc4)ccc3C2=O)C1` (as salt: hydrochloride) [Example 72, 2-[(3R)-1-isopropylpiperidin-3-yl]-6-[4-(pyrrolidin-1-ylcarbonyl)phenyl]-3,4-dihydroisoquinolin-1(2H)-one]: 274 to 275 °C.
Next, `C[C@H]1CCCN1C(=O)c1ccc(-c2ccc3c(c2)CCN([C@@H]2CCN(C4CCC4)C2)C3=O)c(F)c1` (as salt: hydrochloride) [Example 73, 2-[(3R)-1-cyclobutylpyrrolidin-3-yl]-6-(2-fluoro-4-{[(2S)-2-methylpyrrolidin-1-yl]carbonyl}phenyl)-3,4-dihydroisoquinolin-1(2H)-one]: 212 to 213 °C.
